This passage reports TGI and GI50 results from PubChem BioAssay (NCI).

Among the test systems are HT29 colon; HCC-2998 colon; SR leukemia; MDA-MB-231 breast; SK-OV-3 ovarian; HCT-15 colon; HL-60(TB) leukemia; CAKI-1 renal; SK-MEL-2 melanoma; OVCAR-5 ovarian; ACHN renal; MDA-MB-435; NCI-H23 lung; NCI-H522 lung; OVCAR-3 ovarian; PC-3 prostate; DU-145 prostate; MALME-3M melanoma.
Common to all, as to test: NCI-60 cell line screen, 48 h

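Five concentrations, 48 hours, 96-well plates. GI50 = concentration required for 50% inhibition of growth. TGI: concentration producing complete growth inhibition.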

Regarding `CCOC(=O)C(CC(C)C)NC(=O)C(N)Cc1ccc(N(CCCl)CCCl)cc1` (stereo not given), the TGI turned out to be 11.6 µM in the test on HT29 colon; 20 µM in the test with HCC-2998 colon; 4.69 µM in the test on SR leukemia; 32.3 µM with MDA-MB-231 breast; 16.6 µM in the test with SK-OV-3 ovarian; 11.5 µM with HCT-15 colon. The TGI came to 2.51 µM with HL-60(TB) leukemia; 15.3 µM in the test on CAKI-1 renal; 11.8 µM in the test with SK-MEL-2 melanoma; 33.7 µM in the test with OVCAR-5 ovarian; 1.81 µM with ACHN renal; 46.2 µM in the test on MDA-MB-435. The TGI with NCI-H23 lung was 7.09 µM; with NCI-H522 lung, 8.53 µM; in the test with OVCAR-3 ovarian it was 4.72 µM; in the test with PC-3 prostate, 32.2 µM; with DU-145 prostate, 47.1 µM; with MALME-3M melanoma it was 3.84 µM.
Turning to `NCCSC1(O)C(=O)c2ccccc2-c2ccccc21` (stereo not given), the TGI worked out at 3.8 µM in the test with HT29 colon; 3.56 µM in the test with HCC-2998 colon; 1.88 µM in the test on SR leukemia; 2.53 µM in the test on MDA-MB-231 breast; 2.95 µM in the test on SK-OV-3 ovarian; 2.54 µM in the test with HCT-15 colon. In addition, the TGI in the test with HL-60(TB) leukemia turned out to be 2.55 µM; with CAKI-1 renal, 3.05 µM; with SK-MEL-2 melanoma, 3.47 µM; with OVCAR-5 ovarian, 3.34 µM; in the test on ACHN renal it was 2.23 µM; with MDA-MB-435, 0.207 µM. Moreover, the TGI with NCI-H23 lung was 3.75 µM; with NCI-H522 lung, 2.95 µM; in the test with OVCAR-3 ovarian it was 0.38 µM; in the test on PC-3 prostate, 2.56 µM; with DU-145 prostate, 2.28 µM; with MALME-3M melanoma, 2.84 µM. Moreover, the GI50 in the test on HCC-2998 colon was 2.01 µM; in the test on CAKI-1 renal, 1.63 µM.
As to `CCCCN(CCCC)C1(c2cc3ccccc3s2)CCCCC1`, the TGI was 27.5 µM in the test with HT29 colon; 27.4 µM with HCC-2998 colon; 33.5 µM with SR leukemia; 30.2 µM in the test with MDA-MB-231 breast; 36.3 µM with SK-OV-3 ovarian; 30.8 µM in the test with HCT-15 colon. Further, the TGI was determined as 34.3 µM in the test with HL-60(TB) leukemia; 32.8 µM with CAKI-1 renal; 34.5 µM in the test with SK-MEL-2 melanoma; 32.9 µM with OVCAR-5 ovarian; 30.3 µM in the test with ACHN renal; 27.3 µM in the test on MDA-MB-435. Further, the TGI amounted to 29.5 µM with NCI-H23 lung; 25.6 µM in the test with NCI-H522 lung; 29.9 µM with OVCAR-3 ovarian; 34.1 µM in the test on PC-3 prostate; 30 µM in the test on DU-145 prostate.
As for `[N-]=[N+]=NCC(=O)c1c[nH]c(=O)[nH]c1=O`, the TGI with HT29 colon, in the test with HCC-2998 colon, in the test on SR leukemia, with MDA-MB-231 breast, in the test on SK-OV-3 ovarian and in the test with HCT-15 colon was greater than 100 µM throughout. In addition, the TGI in the test on HL-60(TB) leukemia, with CAKI-1 renal, in the test on SK-MEL-2 melanoma, with OVCAR-5 ovarian, in the test on ACHN renal and in the test with MDA-MB-435 was greater than 100 µM each time. Further, the TGI in the test with NCI-H23 lung, in the test on NCI-H522 lung, in the test with OVCAR-3 ovarian, with PC-3 prostate, with DU-145 prostate and in the test on MALME-3M melanoma was greater than 100 µM each time.
`C=C1CC2(C)CCC(OC(=O)C3(C)OC3C)C(C)(OC(C)=O)C2CC1=C(C)C` (stereo not given): the TGI in the test with HT29 colon, in the test on HCC-2998 colon, with SR leukemia, in the test with MDA-MB-231 breast, with SK-OV-3 ovarian and in the test with HCT-15 colon was greater than 100 µM each time. Also, the TGI in the test with HL-60(TB) leukemia was 76.1 µM; in the test with SK-MEL-2 melanoma it was greater than 100 µM; with OVCAR-5 ovarian, greater than 100 µM; with ACHN renal, greater than 100 µM; in the test with MDA-MB-435 it was greater than 100 µM; with NCI-H23 lung it was greater than 100 µM. The TGI in the test on NCI-H522 lung, in the test on OVCAR-3 ovarian, with PC-3 prostate, in the test with DU-145 prostate and in the test on MALME-3M melanoma was greater than 100 µM in each case.
